Drawing on patent US20250136606A1, “MODULATORS OF TRPML, THEIR COMPOSITIONS AND METHODS OF USE” (Caraway Therapeutics, Inc., priority 2021, published 2025), this text covers EC50 for 17 molecules.

Common to all, as to type: cell-based
For one test, the target named is TRPML1 (Homo sapiens, UniProt Q9GZU1). Briefly: Fluorescent TRPML1 assay (Fluo4-AM calcium fluorescence in doxycycline-induced HEK-293 Trex cells). In short, it runs like this:
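HEK-293 Trex cells stably carrying human TRPML1 (surface-trafficking mutant) were induced overnight with 0.5 ug/mL doxycycline, loaded with 1 micromolar Fluo4-AM, and suspended in Ringer's with 10 mM calcium. Compounds at 20 micromolar to 6 nanomolar final, half-log steps, triplicate; fluorescence 480/540 nm gave percent activity versus controls and EC50 by non-linear regression.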

In the next test the target is T1, TRPML2 (Homo sapiens, UniProt Q8IZK6).
T1 construct: expressed in transfected cells
T1 sequence (Q8IZK6 1-566): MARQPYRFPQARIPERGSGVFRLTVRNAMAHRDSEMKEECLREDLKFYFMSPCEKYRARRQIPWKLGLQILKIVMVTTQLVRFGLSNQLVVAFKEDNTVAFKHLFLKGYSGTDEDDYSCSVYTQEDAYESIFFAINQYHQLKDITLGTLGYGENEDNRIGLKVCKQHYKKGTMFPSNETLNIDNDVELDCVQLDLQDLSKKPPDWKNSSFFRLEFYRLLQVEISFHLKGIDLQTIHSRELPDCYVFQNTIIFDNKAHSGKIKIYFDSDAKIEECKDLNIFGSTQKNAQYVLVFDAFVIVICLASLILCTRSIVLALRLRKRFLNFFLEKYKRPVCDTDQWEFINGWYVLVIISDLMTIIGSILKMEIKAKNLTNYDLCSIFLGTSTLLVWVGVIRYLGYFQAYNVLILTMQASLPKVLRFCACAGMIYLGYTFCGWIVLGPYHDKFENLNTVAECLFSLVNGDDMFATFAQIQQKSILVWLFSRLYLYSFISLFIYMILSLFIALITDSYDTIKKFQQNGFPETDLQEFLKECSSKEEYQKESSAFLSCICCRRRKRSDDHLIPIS
Briefly: Fluorescent TRPML2 assay (performed as for TRPML1, substituting the TRPML2 subtype). In short, it runs like this:
(§1)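 HEK-293 Trex cells with doxycycline-induced (0.5 ug/mL) surface-directed human TRPML subtype, loaded with 1 μM Fluo4-AM, resuspended in Ringer's with 10 mM calcium. Compounds at 20 μM to 6 nM final in half-log steps, triplicate; fluorescence ex 480/em 540; EC50 by non-linear regression versus plate controls.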

The target of another test is T2, TRPML3 (Homo sapiens, UniProt Q8TDD5).
T2 construct: expressed in transfected cells
T2 sequence (Q8TDD5 1-553): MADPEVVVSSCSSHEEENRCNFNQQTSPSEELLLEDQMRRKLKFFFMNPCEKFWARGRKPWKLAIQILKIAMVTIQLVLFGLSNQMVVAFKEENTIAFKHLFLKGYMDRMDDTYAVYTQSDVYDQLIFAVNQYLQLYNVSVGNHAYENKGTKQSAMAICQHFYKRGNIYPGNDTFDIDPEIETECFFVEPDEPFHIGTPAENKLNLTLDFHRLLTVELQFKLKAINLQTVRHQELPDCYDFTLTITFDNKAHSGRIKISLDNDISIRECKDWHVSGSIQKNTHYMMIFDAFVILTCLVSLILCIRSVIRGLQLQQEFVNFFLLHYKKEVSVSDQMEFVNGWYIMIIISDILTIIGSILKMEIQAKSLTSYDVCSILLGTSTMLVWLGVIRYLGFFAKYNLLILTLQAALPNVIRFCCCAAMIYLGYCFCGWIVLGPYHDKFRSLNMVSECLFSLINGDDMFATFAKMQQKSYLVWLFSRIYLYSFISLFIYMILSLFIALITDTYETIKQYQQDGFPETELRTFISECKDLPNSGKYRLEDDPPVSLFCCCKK
The test can be described thus: Fluorescent TRPML3 assay (performed as for TRPML1, substituting the TRPML3 subtype). In outline:
as §1

Like-named read-outs stand apart in the source and are kept apart here.

Chain of TRPML1 (Q9GZU1 whole entry L15A/L16A/L577A/L578A, form open): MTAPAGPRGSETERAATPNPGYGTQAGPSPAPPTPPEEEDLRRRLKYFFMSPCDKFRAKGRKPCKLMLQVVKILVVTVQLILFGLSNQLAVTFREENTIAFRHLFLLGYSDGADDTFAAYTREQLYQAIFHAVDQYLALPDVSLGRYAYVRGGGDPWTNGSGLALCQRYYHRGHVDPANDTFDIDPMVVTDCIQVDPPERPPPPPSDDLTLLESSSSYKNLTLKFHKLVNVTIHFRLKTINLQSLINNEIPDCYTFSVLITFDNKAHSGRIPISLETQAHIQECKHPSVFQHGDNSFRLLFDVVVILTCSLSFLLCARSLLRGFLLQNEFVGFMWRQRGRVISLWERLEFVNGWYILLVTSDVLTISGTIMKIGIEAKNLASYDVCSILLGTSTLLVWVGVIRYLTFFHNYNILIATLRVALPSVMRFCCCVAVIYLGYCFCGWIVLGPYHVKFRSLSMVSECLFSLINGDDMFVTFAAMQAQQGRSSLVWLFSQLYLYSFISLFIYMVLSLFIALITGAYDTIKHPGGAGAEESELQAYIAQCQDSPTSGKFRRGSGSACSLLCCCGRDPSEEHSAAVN

Regarding `CCN(CCOC)c1cn(-c2cc(C#N)ccn2)c2ncnc(N3CCN(C(=O)OC(C)(C)C)C[C@@H]3C)c12` [Compound 486, tert-butyl (S)-4-(7-(4-cyanopyridin-2-yl)-5-(ethyl(2-methoxyethyl)amino)-7H-pyrrolo[2,3-d]pyrimidin-4-yl)-3-methylpiperazine-1-carboxylate], the EC50 at TRPML1 (fluorescent calcium assay) is under 100 nM; on TRPML2 (fluorescent calcium assay) it was 100 to 500 nM; at TRPML3 (fluorescent calcium assay) it was under 100 nM.
As for `CCCOc1cn(-c2cc(C#N)ccn2)c2ncnc(N3CCN(C(=O)OC(C)(C)C)C[C@@H]3C)c12` [Compound 487, tert-butyl (S)-4-(7-(4-cyanopyridin-2-yl)-5-propoxy-7H-pyrrolo[2,3-d]pyrimidin-4-yl)-3-methylpiperazine-1-carboxylate], the EC50 on TRPML1 (fluorescent calcium assay), on TRPML2 (fluorescent calcium assay) and on TRPML3 (fluorescent calcium assay) was under 100 nM each time.
Regarding `C[C@@H]1CN(c2ncnc3c2c(N2CCC2)cn3-c2cc(C#N)ccn2)[C@@H](C)CN1C(=O)OC(C)(C)C` [Compound 489, tert-butyl (2R,5S)-4-(5-(azetidin-1-yl)-7-(4-cyanopyridin-2-yl)-7H-pyrrolo[2,3-d]pyrimidin-4-yl)-2,5-dimethylpiperazine-1-carboxylate], the EC50 on TRPML1 (fluorescent calcium assay), at TRPML2 (fluorescent calcium assay) and at TRPML3 (fluorescent calcium assay) was under 100 nM throughout.
With `C[C@@H]1CN(c2ncnc3c2c(N2CCC2)cn3-c2cccc(Cl)c2)[C@@H](C)CN1C(=O)OC(C)(C)C` [Compound 490, tert-butyl (2R,5S)-4-(5-(azetidin-1-yl)-7-(3-chlorophenyl)-7H-pyrrolo[2,3-d]pyrimidin-4-yl)-2,5-dimethylpiperazine-1-carboxylate], the EC50 on TRPML1 (fluorescent calcium assay), on TRPML2 (fluorescent calcium assay) and on TRPML3 (fluorescent calcium assay) was under 100 nM throughout.
`C[C@@H]1CN(c2ncnc3c2c(C(F)(F)F)cn3-c2cccc(Cl)c2)[C@@H](C)CN1C(=O)OC(C)(C)C` [Compound 491, tert-Butyl (2R,5S)-4-(7-(3-chlorophenyl)-5-(trifluoromethyl)-7H-pyrrolo[2,3-d]pyrimidin-4-yl)-2,5-dimethylpiperazine-1-carboxylate]: the results for the EC50 on TRPML1 (fluorescent calcium assay), at TRPML2 (fluorescent calcium assay) and on TRPML3 (fluorescent calcium assay) were under 100 nM, 100 to 500 nM and under 100 nM, respectively.
For `C[C@@H]1CN(c2ncnc3c2c(C(F)(F)F)cn3-c2cc(F)cc(F)c2)[C@@H](C)CN1C(=O)OC(C)(C)C` [Compound 492], the EC50 at TRPML1 (fluorescent calcium assay) is under 100 nM; on TRPML2 (fluorescent calcium assay) it was 100 to 500 nM; at TRPML3 (fluorescent calcium assay), under 100 nM.
Turning to `C[C@H]1CN(C(=O)OC(C)(C)C)CCN1c1ncnc2c1c(N1CCC1)cn2-c1cccc(Cl)c1` [Compound 493, tert-butyl (S)-4-(5-(azetidin-1-yl)-7-(3-chlorophenyl)-7H-pyrrolo[2,3-d]pyrimidin-4-yl)-3-methylpiperazine-1-carboxylate], the EC50 at TRPML1 (fluorescent calcium assay), on TRPML2 (fluorescent calcium assay) and at TRPML3 (fluorescent calcium assay) was under 100 nM throughout.
For the molecule `C[C@H]1CN(C(=O)OC(C)(C)C)CCN1c1ncnc2c1c(C(F)(F)F)cn2-c1cccc(Cl)c1` [Compound 494, tert-butyl (S)-4-(7-(3-chlorophenyl)-5-(trifluoromethyl)-7H-pyrrolo[2,3-d]pyrimidin-4-yl)-3-methylpiperazine-1-carboxylate], the EC50 on TRPML1 was under 100 nM; on TRPML2, 100 to 500 nM; on TRPML3, under 100 nM.
Regarding `C[C@H]1CN(C(=O)OC(C)(C)C)CCN1c1ncnc2c1c(C(F)(F)F)cn2-c1cc(F)cc(F)c1` [Compound 495], the EC50 at TRPML1 was under 100 nM; at TRPML2, 100 to 500 nM; at TRPML3 it was under 100 nM.
Turning to `C[C@@H]1CN(c2ncnc3c2c(C(F)(F)F)cn3-c2cccc(F)c2)[C@@H](C)CN1C(=O)OC(C)(C)C` [Compound 496, tert-butyl (2R,5S)-4-(7-(3-fluorophenyl)-5-(trifluoromethyl)-7H-pyrrolo[2,3-d]pyrimidin-4-yl)-2,5-dimethylpiperazine-1-carboxylate], the EC50 at TRPML1 is under 100 nM; at TRPML2, 100 to 500 nM; on TRPML3, under 100 nM.
For the molecule `C[C@@H]1CN(c2ncnc3c2c(N2CCC2)cn3-c2cc(F)cc(F)c2)[C@@H](C)CN1C(=O)OC(C)(C)C` [Compound 497, tert-butyl (2R,5S)-4-(5-(azetidin-1-yl)-7-(3,5-difluorophenyl)-7H-pyrrolo[2,3-d]pyrimidin-4-yl)-2,5-dimethylpiperazine-1-carboxylate], the EC50 on TRPML1, at TRPML2 and at TRPML3 was under 100 nM in each case.
Consider `C[C@H]1CN(C(=O)OC(C)(C)C)CCN1c1ncnc2c1c(N1CCC1)cn2-c1cc(F)cc(F)c1` [Compound 498, tert-butyl (S)-4-(5-(azetidin-1-yl)-7-(3,5-difluorophenyl)-7H-pyrrolo[2,3-d]pyrimidin-4-yl)-3-methylpiperazine-1-carboxylate], for which the EC50 on TRPML1, at TRPML2 and on TRPML3 was under 100 nM in each case.
`CCCN(C)c1cn(-c2cc(C#N)ccn2)c2ncnc(N3C[C@@H](C)N(C(=O)OC(C)(C)C)C[C@@H]3C)c12` [Compound 499, tert-butyl (2R,5S)-4-(7-(4-cyanopyridin-2-yl)-5-(methyl(propyl)amino)-7H-pyrrolo[2,3-d]pyrimidin-4-yl)-2,5-dimethylpiperazine-1-carboxylate]: the EC50 was under 100 nM at TRPML1, 100 to 500 nM on TRPML2 and under 100 nM on TRPML3.
Turning to `C=CCOC(=O)N(CCC)c1cn(-c2cc(Cl)ccn2)c2ncnc(N3C[C@@H](C)N(C(=O)OC(C)(C)C)C[C@@H]3C)c12` [Compound 500, tert-butyl (2R,5S)-4-(5-(((allyloxy)carbonyl)(propyl)amino)-7-(4-chloropyridin-2-yl)-7H-pyrrolo[2,3-d]pyrimidin-4-yl)-2,5-dimethylpiperazine-1-carboxylate], the EC50 is 100 to 500 nM on TRPML1, 500 to 2000 nM at TRPML2 and 100 to 500 nM at TRPML3.
Turning to `C[C@H]1CN(c2ncnc3c2c(C(F)(F)F)cn3-c2cc(C#N)ccn2)[C@@H](C)CN1C(=O)OC(C)(C)C` [Compound 502, tert-butyl (25,5S)-4-(7-(4-cyanopyridin-2-yl)-5-(trifluoromethyl)-7H-pyrrolo[2,3-d]pyrimidin-4-yl)-2,5-dimethylpiperazine-1-carboxylate], the EC50 is under 100 nM on TRPML1, 100 to 500 nM at TRPML2 and under 100 nM at TRPML3.
In the case of `C[C@@H]1CN(c2ncnc3c2c(C(F)(F)F)cn3-c2cc(C#N)ccn2)[C@H](C)CN1C(=O)OC(C)(C)C` [Compound 503, tert-butyl (2R,5R)-4-(7-(4-cyanopyridin-2-yl)-5-(trifluoromethyl)-7H-pyrrolo[2,3-d]pyrimidin-4-yl)-2,5-dimethylpiperazine-1-carboxylate], the EC50 on TRPML1 was under 100 nM; at TRPML2 it was over 2000 nM; at TRPML3, 100 to 500 nM.
For `C[C@@H]1CN(c2ncnc3c2c(N2CC4(COC4)C2)cn3-c2cc(C#N)ccn2)[C@@H](C)CN1C(=O)OC(C)(C)C` [Compound 504, tert-butyl (2R,5S)-4-(7-(4-cyanopyridin-2-yl)-5-(2-oxa-6-azaspiro[3.3]heptan-6-yl)-7H-pyrrolo[2,3-d]pyrimidin-4-yl)-2,5-dimethylpiperazine-1-carboxylate] the same measures were under 100 nM, 100 to 500 nM and under 100 nM.
